Measurements from publication PMC10326263 (Acta Pharmaceutica Sinica. B, 2023).

Key:
[1] = test system: HIV-1 mutant strain Y188L; assay: microbe, parasite or virus in culture; assay type: cell-based; details: Human immunodeficiency virus 1, MT4, read-out: EC50 Y188L
[2] = test system: HIV-1 mutant strain Y181C; assay: microbe, parasite or virus in culture; assay type: cell-based; details: Human immunodeficiency virus 1, MT4, read-out: EC50 Y181C
[3] = test system: HIV-1 mutant strain E138K; assay: microbe, parasite or virus in culture; assay type: cell-based; details: Human immunodeficiency virus 1, MT4, read-out: EC50 E138K
[4] = test system: HIV-1 mutant strain K103N; assay: microbe, parasite or virus in culture; assay type: cell-based; details: Human immunodeficiency virus 1, MT4, read-out: EC50 K103N
[5] = test system: HIV-1 mutant strain F227L + V106A; assay: microbe, parasite or virus in culture; assay type: cell-based; details: Human immunodeficiency virus 1, MT4, read-out: EC50 F227L + V106A
HIV-1 WT strain (IIIB) = assay: Anti-HIV activity against WT HIV-1
[6] = Cytotoxicity in mock-infected MT-4 cells, MTT method; assay type: cell-based; details: human, mock-infected MT-4 cells, CC50, mock-infected MT-4 cells
[7] = test system: HIV-1 mutant strain RES056 (K103N + Y181C); assay: microbe, parasite or virus in culture; assay type: cell-based; details: Human immunodeficiency virus 1, MT4, read-out: EC50 RES056
[8] = test system: HIV-1 mutant strain L100I; assay: microbe, parasite or virus in culture; assay type: cell-based; details: Human immunodeficiency virus 1, MT4, read-out: EC50 L100I

Compound	EC50 [1] [µM]	EC50 [2] [µM]	EC50 [3] [µM]	EC50 [4] [µM]	EC50 [5] [µM]	SI IIIB (CC50/EC50 ratio) (HIV-1 WT strain (IIIB); WT HIV-1 IIIB)	CC50 at 5 days [6] [µM]	EC50 [7] [µM]	EC50 [8] [µM]	selectivity index, times higher than that of IAS-0 (HIV-1 WT strain (IIIB); WT HIV-1) [times]	EC50 (HIV-1 WT strain (IIIB); read-out: EC50 IIIB, WT HIV-1 IIIB, MT-4 cells) [µM]
Cc1cc(C)cc(S(=O)(=O)c2c(C(=O)NCCCCNS(=O)(=O)c3ccc([N+](=O)[O-])cc3)[nH]c3ccc(Cl)cc23)c1 [R3L4, 5-Chloro-3-((3,5-dimethylphenyl)sulfonyl)-N-(4-((4-nitrophenyl)sulfonamido)butyl)-1H-indole-2-carboxamide]	0.87 ± 0.065	0.4 ± 0.11	0.23 ± 0.032	0.5 ± 0.16	0.36 ± 0.032	3809	104 ± 31.4	1.88 ± 0.68	0.13 ± 0.018	–	–
Cc1cc(C)cc(S(=O)(=O)c2c(C(=O)NCCNS(=O)(=O)C3CC3)[nH]c3ccc(Cl)cc23)c1 [R13L2, 5-Chloro-N-(2-(cyclopropanesulfonamido)ethyl)-3-((3,5-dimethylphenyl)sulfonyl)-1H-indole-2-carboxamide]	1.65 ± 0.39	0.18 ± 0.057	0.055 ± 0.016	0.11 ± 0.02	0.51 ± 0.12	41,951	172 ± 6.91	32.6 ± 7.96	0.053 ± 0.022	~14	0.0041 ± 0.00079
Cc1cc(C)cc(S(=O)(=O)c2c(C(=O)NCCCCNS(=O)(=O)c3ccc(Cl)cc3)[nH]c3ccc(Cl)cc23)c1 [R7L4, 5-Chloro-3-((3,5-dimethylphenyl)sulfonyl)-N-(4-((4-chlorophenyl)sulfonamido)butyl)-1H-indole-2-carboxamide]	1.53 ± 0.72	0.18 ± 0.016	0.051 ± 0.018	0.13 ± 0.048	0.26	10,389	89.3 ± 17.8	> 89.3	0.074 ± 0.021	–	–
Cc1ccc(S(=O)(=O)NCCCCCNC(=O)c2[nH]c3ccc(Cl)cc3c2S(=O)(=O)c2cc(C)cc(C)c2)cc1 [R1L5, 5-Chloro-3-((3,5-dimethylphenyl)sulfonyl)-N-(5-((4-methylphenyl)sulfonamido)pentyl)-1H-indole-2-carboxamide]	2.53 ± 0.18	0.23 ± 0.017	0.18 ± 0.017	0.63 ± 0.017	0.38 ± 0.13	4159	113 ± 3.74	> 113	0.17 ± 0.017	–	–
Cc1ccc(S(=O)(=O)NCCNC(=O)c2[nH]c3ccc(Cl)cc3c2S(=O)(=O)c2cc(C)cc(C)c2)cc1 [R1L2, 5-Chloro-3-((3,5-dimethylphenyl)sulfonyl)-N-(2-((4-methylphenyl)sulfonamido)ethyl)-1H-indole-2-carboxamide]	6.42 ± 1.4	0.61 ± 0.13	0.86 ± 0.36	0.41 ± 0.11	1.75 ± 0.2	3787	168 ± 17.2	3.38 ± 0.89	0.68 ± 0.39	–	–
Cc1cc(C)cc(S(=O)(=O)c2c(C(=O)NCCCCCNS(=O)(=O)c3ccc(Cl)cc3)[nH]c3ccc(Cl)cc23)c1 [R7L5, 5-Chloro-3-((3,5-dimethylphenyl)sulfonyl)-N-(5-((4-chlorophenyl)sulfonamido)pentyl)-1H-indole-2-carboxamide]	3.14 ± 0.95	0.19	0.052 ± 0.009	0.43 ± 0.14	0.37 ± 0.11	11,132	115 ± 8.89	> 115	0.061 ± 0.0032	–	–
COc1ccc(S(=O)(=O)NCCNC(=O)c2[nH]c3ccc(Cl)cc3c2S(=O)(=O)c2cc(C)cc(C)c2)cc1 [R2L2, 5-Chloro-3-((3,5-dimethylphenyl)sulfonyl)-N-(2-((4-methoxyphenyl)sulfonamido)ethyl)-1H-indole-2-carboxamide]	> 106	0.85 ± 0.035	1.11 ± 0.17	0.9 ± 0.38	1.58 ± 0.45	1233	106 ± 23	> 106	0.66 ± 0.23	–	–
Cc1cc(C)cc(S(=O)(=O)c2c(C(=O)NCCCNS(=O)(=O)c3ccc([N+](=O)[O-])cc3)[nH]c3ccc(Cl)cc23)c1 [R3L3, 5-Chloro-3-((3,5-dimethylphenyl)sulfonyl)-N-(3-((4-nitrophenyl)sulfonamido)propyl)-1H-indole-2-carboxamide]	3.29 ± 0.066	1.03 ± 0.05	0.31 ± 0.05	0.73 ± 0.12	1.77 ± 0.033	464	23 ± 0.6	4.92 ± 1.27	0.35 ± 0.017	–	–
Cc1cc(C)cc(S(=O)(=O)c2c(C(=O)NCCNS(=O)(=O)c3ccccc3F)[nH]c3ccc(Cl)cc23)c1 [R11L2, 5-Chloro-3-((3,5-dimethylphenyl)sulfonyl)-N-(2-((2-fluorophenyl)sulfonamido)ethyl)-1H-indole-2-carboxamide]	2.68 ± 0.25	0.28 ± 0.036	0.2 ± 0.036	0.21 ± 0.053	1.23 ± 0.43	11,116	199 ± 8.29	3.04 ± 0.21	0.25 ± 0.071	–	–
